# How the values were obtained:
# MV4-11 cells = test: MTT anti-proliferation assay, MV4-11; type: cell-based; conditions: Homo sapiens, 72-h treatment
# Method: In addition, the normal hematopoietic cell line was COLO 829BL from ATCC. The cells were maintained in RPMI-1640 medium supplemented with 10% FBS, and 1% penicillin and streptomycin. The cells were cultured in an incubator at 37°C with 5% CO2. […] The high-performance liquid chromatography (HPLC) spectra data for each compound are provided in the (Supplementary Figures S1–S6).
# (§1) The effects of the test compounds on MV4-11, NB4, and COLO 829BL cell lines were quantitatively evaluated according to the methods previously reported ([Zhou et al., 2022]).
# FLT3-ITD = biological target: T1, FLT3-ITD (Homo sapiens, UniProt P36888, ITD); test: Microscale thermophoresis (MST) binding affinity; conditions: 50 mM Tris, 230 mM NaCl, pH 7.0, labeled protein 50 nM
# T1 sequence (P36888 27-993): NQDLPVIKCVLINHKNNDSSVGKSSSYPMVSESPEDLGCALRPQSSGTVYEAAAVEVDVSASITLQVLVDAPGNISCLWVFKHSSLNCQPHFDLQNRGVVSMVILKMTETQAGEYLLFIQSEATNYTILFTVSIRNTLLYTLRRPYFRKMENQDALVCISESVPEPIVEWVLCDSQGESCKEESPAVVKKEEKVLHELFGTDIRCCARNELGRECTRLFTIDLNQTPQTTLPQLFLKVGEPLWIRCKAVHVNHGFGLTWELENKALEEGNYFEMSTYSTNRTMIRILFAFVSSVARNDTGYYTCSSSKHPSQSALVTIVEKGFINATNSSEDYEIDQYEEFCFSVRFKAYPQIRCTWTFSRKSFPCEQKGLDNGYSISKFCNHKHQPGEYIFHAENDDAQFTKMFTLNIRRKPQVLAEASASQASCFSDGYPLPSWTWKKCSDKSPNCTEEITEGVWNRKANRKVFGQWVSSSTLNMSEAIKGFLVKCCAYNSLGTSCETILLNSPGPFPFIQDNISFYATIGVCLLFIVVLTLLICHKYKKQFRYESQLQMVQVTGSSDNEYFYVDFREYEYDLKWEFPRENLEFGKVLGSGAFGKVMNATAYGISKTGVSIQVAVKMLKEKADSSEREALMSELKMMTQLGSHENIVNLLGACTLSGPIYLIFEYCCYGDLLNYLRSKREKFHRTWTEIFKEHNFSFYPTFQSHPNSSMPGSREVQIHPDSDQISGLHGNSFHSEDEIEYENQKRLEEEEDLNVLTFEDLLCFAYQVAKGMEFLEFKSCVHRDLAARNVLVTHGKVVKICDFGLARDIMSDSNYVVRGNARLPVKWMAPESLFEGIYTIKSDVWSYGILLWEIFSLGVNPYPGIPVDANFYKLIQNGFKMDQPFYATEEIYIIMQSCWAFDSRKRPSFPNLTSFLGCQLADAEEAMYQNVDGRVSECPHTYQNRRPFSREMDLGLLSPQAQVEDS
# Method: The protein was labeled with a fluorescence tag utilizing a Lys Labeling Kit (NanoTemper), with a final concentration of 50 nM being achieved. Adhering to the manufacturer’s guidelines, the compounds were titrated from an initial concentration of 12.5 μM with a 1:1 dilution ratio. Next, each sample was centrifuged at 15,000 rpm for 5 min, followed by loading into standard glass capillaries for MST analysis.
# [1] = tested on: FLT3 signaling pathway (p-FLT3, p-STAT5, p-ERK) in MV4-11 cells; test: Western blot of FLT3 signaling pathway in MV4-11 cells; type: cell-based, human; conditions: 4 h, MV4-11, Western blot quantification
# Method: The MV4-11 cell line was subjected to a 4 h exposure to varying concentrations of the FLIN-4 compound. Subsequent to this treatment, cellular lysis was conducted using RIPA lysis buffer (Sigma-Aldrich, United States) to isolate total cellular proteins. Subsequently, protein concentrations were precisely quantified using the BCA protein assay kit (Beyotime, Nantong, China). Western blot analysis was carried out in accordance with established methodologies ([Zhou et al., 2022]). The primary antibodies utilized in this study included: rabbit anti-FLT3 (21049−1-AP, Proteintech Group), rabbit anti-phospho-FLT3 (ab171975, Abcam), rabbit anti-Stat5 (#94205, CST), rabbit anti-Phospho-Stat5 (#4322, CST), rabbit anti-ERK (16443−1-AP, Proteintech Group), rabbit anti-phospho-ERK (28733−1-AP, Proteintech Group), and a rabbit anti-GAPDH antibody (10494−1-AP, Proteintech Group) served as an endogenous loading control.
# To elucidate the impact of FLIN-4 on the FLT3 signaling cascade, we conducted a Western blot analysis in MV4-11 cells to evaluate the relative expression levels of pivotal phosphorylated proteins.
# NB4 cells = test: MTT assay, NB4 (FLT3 wild-type); type: cell-based; conditions: 2–64 μM
# Excerpt: (§2) The human AML cell line MV4-11, which bears exclusive FLT3-ITD mutation genes, was purchased from the American Type Culture Collection (ATCC, Manassas, VA, United States), and the AML cell line NB4, a FLT3-wildtype cell line, was obtained from the China Center for Type Culture Collection (CCTCC, Wuhan, China). In addition, the normal hematopoietic cell line was COLO 829BL from ATCC. The cells were maintained in RPMI-1640 medium supplemented with 10% FBS, and 1% penicillin and streptomycin. The cells were cultured in an incubator at 37°C with 5% CO2. […] The high-performance liquid chromatography (HPLC) spectra data for each compound are provided in the (Supplementary Figures S1–S6). The FLT3-ITD mutant protein was purchased from Abcam (Cambridge, United Kingdom).
# as §1
# (§3) Subsequently, to further validate the specificity of FLIN-4 for cells expressing FLT3-ITD, we conducted MTT assays to assess the specificity and cytotoxicity of FLIN-4 within the concentration range of 2–64 μM on NB4 cells (harboring FLT3 wild-type) and COLO 829BL cells (representing normal hematopoietic cells). […]
# COLO 829BL cells = test: MTT assay, COLO 829BL (normal hematopoietic); type: cell-based; conditions: 2–64 μM
# Excerpt: as §2, §1, §3
smiles,measurement,setting,value
CCc1nc(C(N)=O)c(Nc2ccc(N3CCC(Nc4ccccc4)CC3)c(OC)c2)nc1NC1CCOC(C(O)CO)C1 (stereo not shown) [FLIN-4],IC50,MV4-11 cells,1.31 ± 0.06 nM
same,Kd,FLT3-ITD,0.95 ± 0.06 nM
same,p-ERK/ERK expression level,[1]; 3 nM,significant diminution
same,p-FLT3/FLT3 expression level,[1]; 3 nM,significant diminution
same,p-STAT5/STAT5 expression level,[1]; 3 nM,significant diminution
same,p-ERK/ERK expression level,[1]; 30 nM,exacerbated decrease
same,p-FLT3/FLT3 expression level,[1]; 30 nM,exacerbated decrease
same,p-STAT5/STAT5 expression level,[1]; 30 nM,exacerbated decrease
same,Survival rate of NB4 cells,NB4 cells,did not induce any significant changes in the survival rates
same,Survival rate of COLO 829BL cells,COLO 829BL cells,did not induce any significant changes in the survival rates

# — PMC11830721 (Frontiers in Pharmacology, 2025)
